From the supplement of paper PMC10949913

Key:
Test in all cases: area under concentration-response curve (viability) (AUC (a.u.)); higher = less active
Settings in all cases: 48 h
CU-ACC1 = test system: CU-ACC1
Summary of the method: (§1)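 In 1,536-well plates, 500–1,000 cells/well of three adrenocortical carcinoma cell lines in 5 µL medium received 23 nL of each library compound across 11 concentrations. At 48 h, CellTiter-Glo was incubated for 15 minutes at room temperature and luminescence measured. Per-plate normalisation used vehicle and empty-well controls, and only inhibitory or non-responding curve classes were kept when fitting concentration-response curves for AC50 and area under the curve.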

CU-ACC2 = test system: CU-ACC2
Summary of the method: as §1

NCI-H295R = test system: NCI-H295R
Summary of the method: as §1

Compound | area under concentration-response curve (CU-ACC1) | area under concentration-response curve (CU-ACC2) | area under concentration-response curve (NCI-H295R)
CC1C\2C(O)C3C(N(C)C)C(=O)\C(=C(O)/C3(O)C(=O)C2=C(O)/C4=C1C=CC=C4O)C(N)=O (stereo unspecified) | 473 | 573 | 502
COCCCc1sc(-c2ccccc2)nc1C(=O)Nc1ccccc1-c1nc2cc(CN3CCCC3)cnc2s1 | 563 | 564 | 567
CCN1\C=C(C(O)=O)/C(=O)C2=C1C(=C(N3CCNC(C)C3)C(=C2)F)F (stereo unspecified) | 577 | 674 | 605
CC(C)N(CCCNC(=O)Nc1ccc(C(C)(C)C)cc1)C[C@H]1O[C@@H](n2ccc3c(N)ncnc32)[C@H](O)[C@@H]1O | 537 | 656 | 578
COc1nccc(-c2c(-c3ccc(F)cc3)ncn2C2CCNCC2)n1 | 429 | 482 | 423
C/C(O)=C(\C#N)C(=O)Nc1ccc(C(F)(F)F)cc1 | 503 | 607 | 524
CCCCCCCCCC(=O)N[C@@H](Cc1c[nH]c2ccccc12)C(=O)N[C@H](CC(N)=O)C(=O)N[C@@H](CC(=O)O)C(=O)N[C@@H]1C(=O)NCC(=O)N[C@@H](CCCN)C(=O)N[C@@H](CC(=O)O)C(=O)N[C@H](C)C(=O)N[C@@H](CC(=O)O)C(=O)NCC(=O)N[C@H](CO)C(=O)N[C@@H]([C@@H](C)CC(=O)O)C(=O)N[C@@H](CC(=O)c2ccccc2N)C(=O)O[C@@H]1C | 485 | 606 | 496
CCC(CC)CC1(C(=O)Nc2ccccc2SC(=O)C(C)C)CCCCC1 | 519 | 593 | 537
O=C(O)c1cc(O)c2c(c1)C(=O)c1cccc(O)c1C2=O | 529 | 622 | 582
O=C1[O][Pt]2([NH]C3CCCCC3[NH]2)[O]C1=O (stereo unspecified) | 564 | 631 | 565
C[C@H]1O[C@H](O[C@H]2[C@H](O)[C@@H](O)[C@@H](O[C@H]3[C@H](O)[C@@H](O)C(O)O[C@@H]3CO)O[C@@H]2CO)[C@H](O)[C@@H](O)[C@@H]1N[C@H]1C=C(CO)[C@@H](O)[C@H](O)[C@H]1O (stereo partly specified) | 414 | 482 | 447
O=C1NNc2nc(CN3Cc4ccccc4C3)nc3cccc1c23 | 537 | 600 | 526
OC(=O)\C1=C\N(C2CC2)C3=CC(=C(F)C=C3C1=O)N4CCNCC4 | 571 | 693 | 561
CNC[C@H](O)c1cccc(O)c1 | 440 | 508 | 449
N=C(N)NN.N=C(N)NN.O=S(=O)(O)O | 503 | 559 | 524
O=C(O)CNC(=O)C1C(=O)N(C2CCCCC2)C(=O)N(C2CCCCC2)C1=O | 473 | 483 | 479

Compound | area under concentration-response curve (CU-ACC1) | area under concentration-response curve (CU-ACC2) | area under concentration-response curve (NCI-H295R)
Nc1cc(COc2c(Cl)cc(C[C@H](N)C(=O)O)cc2Cl)c2oc(-c3ccccc3)nc2c1 | 488 | 577 | 588
CC(C)C[C@H](CC(=O)O)C(=O)N[C@@H](Cc1c[nH]c2ccccc12)C(=O)N[C@@H](C)c1ccccc1 | 433 | 622 | 577
C[C@@H]1[C@H]\2[C@H](O)[C@H]3[C@H](N(C)C)\C(=C(C(N)=O)/C(=O)[C@@]3(O)\C(=C2C(=O)C4=C(O)C=CC=C14)O)O | 406 | 325 | 403
CN[C@H](CC(C)C)C(=O)N[C@H]1C(=O)N[C@@H](CC(N)=O)C(=O)N[C@H]2C(=O)N[C@H]3C(=O)N[C@H](C(=O)N[C@H](C(=O)O)c4cc(O)cc(O)c4-c4cc3ccc4O)[C@H](O)c3ccc(c(Cl)c3)Oc3cc2cc(c3O[C@@H]2O[C@H](CO)[C@@H](O)[C@H](O)[C@H]2O[C@H]2C[C@](C)(N)[C@H](O)[C@H](C)O2)Oc2ccc(cc2Cl)[C@H]1O | 589 | 676 | 614
COc1cc(SC)ccc1C(=O)N1CCC(Cc2ccccc2)CC1 | 522 | 501 | 538
C[C@](N)(Cc1ccc(O)c(O)c1)C(=O)O | 475 | 477 | 524
CCCC1OC2C[C@H]3[C@@H]4CCC5=CC(=O)C=C[C@]5(C)[C@H]4C(O)C[C@]3(C)[C@]2(C(=O)CO)O1 (stereo partly specified) | 562 | 661 | 607
CC(C)c1cc(C(C)C)c(CC(=O)N[S+](=O)([O-])Oc2c(C(C)C)cccc2C(C)C)c(C(C)C)c1 | 456 | 454 | 480
COc1ccc(Oc2cc(NCCC(F)(F)F)c3ncc(-c4ccc(C(=O)NC5CC5)c(C)c4)n3n2)c(F)c1F | 487 | 459 | 501
NC\1=N\C(=O)N(\C=C1)[C@@H]2CS[C@H](CO)O2 | 534 | 612 | 569
COc1cc2c(cc1-c1c(C)noc1C)ncc1[nH]c(=O)n([C@H](C)c3ccccn3)c12 | 490 | 515 | 459
OC[C@H]1O[C@H]([C@H](O)[C@@H]1O)N2/C=C\C=N/C2=O | 525 | 609 | 583
CCOC\1=C(/C(=O)NC2=CC=C(OC3=C(Cl)C(=NC=C3)N)C(=C2)F)C(=O)N(\C=C1)C4=CC=C(F)C=C4 | 522 | 578 | 530
CCN(C(=O)C/1=C(O)/C2=C(C=CC=C2Cl)N(C)C1=O)C3=CC=CC=C3 | 489 | 566 | 555
Nc1nc(F)nc2c1ncn2[C@@H]1O[C@H](CO)[C@@H](O)[C@@H]1O | 528 | 577 | 510
O=NN(CCCl)C(=O)NCCCl | 454 | 522 | 466
